# Test results as given in EP0845210A1, “New herbicidal compositions” (RHONE-POULENC AGRICULTURE LTD., priority 1994, dated 1996).
# Tested on: maize
# Assay: Procedure C: field trial of crop phytotoxicity, visual assessment 40 days after sowing
# Format: in vivo
# Method: The experiments were carried out pre-emergence of the weed species at various research farm locations throughout the Mid-West corn belt in United States of America with Compounds A and D (each formulated as wettable powders) and metolachlor (formulated as a 96% emulsifiable concentrate), alachlor (formulated as a 48% emulsifiable concentrate) and dimethenamid (formulated as a 90% emulsifiable concentrate).
# Various mixtures of the above 4-benzoylisoxazoles and chloroacetamides were weighed out and dissolved in water to give a solution containing the appropriate concentrations and ratios of active ingredients.
# The solution was mixed for one hour and applied at a spray volume of 231 litres/hectare to a 3 metre by 5 metre test plot comprising the maize seed which were sown 2 days earlier. 3 replicates were performed. The experiments were performed using seven varities of maize (except for the mixtures comprising alachlor at 1120 g per hectare, where four varieties were used). A control plot was sprayed with a solution not containing test compound. Visual assessment of phytotoxicity was made 40 days after sowing the maize seeds based on a comparison with the control plot. Table F1
smiles,measurement,setting,value
"CS(=O)(=O)c1cc(C(F)(F)F)ccc1C(=O)c1cnoc1C1CC1 [Compound A, 5-cyclopropyl-4-(2-methylsulphonyl-4-trifluoromethyl)benzoylisoxazole]",Visual assessment of phytotoxicity,A 78 g/ha alone,0
same,Visual assessment of phytotoxicity,A 105 g/ha alone,0
